Assays:
[1] = test system: TGF-β reporter line (MLEC p3TP Luc); assay: TGF-β reporter cell line luciferase activity; assay type: cell-based
Method: (§1) FIG. 22E is a schematic showing an experimental scheme to show the precise kinetics of growth factor exposure on luciferase activity in the reporter lines. Following seeding and serum starvation (reduces background), a specific inhibitor is added to create a uniform inhibitory field. Subsequently, for given amounts of time, the inhibitor is washed off, the growth factor (either TGF-β1 or BMP4) is added for specified time, and washed off followed by re-addition of the inhibitor. At 24 hours, cells are lysed and assayed for luciferase activity.
(§2) The reporter cell lines were seeded in these 5 layered systems and imaged for luciferase activity after 24 hours to confirm development of spatially distinct morphogens fields.

[2] = test system: phospho-Smad2 in D1 (MSCs); assay: immunoblot / immunostaining for phospho-Smad2 (2/3) in D1 MSCs; assay type: cell-based
Method: (§3) Experiments were carried out with the following morphogens: TGF-β1 to drive dentin differentiation and BMP4 to drive bone differentiation. The scaffold devices were fabricated, loaded with morphogens (in this case, differentiation factors), and then seeded with stem cells, e.g., mesendymal stem cells, embryonic stem cells or induced pluripotent stem cells (iPS)). The loaded, seeded devices were cultured for 21 days with no additional factors present in the media. All factors came from within the scaffold from the point of seeding. Immunoblots were carried out to assess activation of the downstream Smad signaling pathways following treatment of D1s with these morphogens.

[3] = test system: dermal human vascular endothelial cells (HMVECs); assay: in vitro sprouting assay (cell-seeded dextran beads in fibrin gel); assay type: cell-based; conditions: HMVEC-coated beads in fibrin gel, 4 days, 10 ng/mL HGF in all media
Method: Briefly, dermal human vascular endothelial cells (HMVECs) were purchased from Lonza (CC-2543) and cultured to confluence at 37° C. and 5% CO2 in microvascular endothelial cell growth medium-2 (EGM-2MV) (Lonza) containing all supplements. Angiogenic activity of endothelial cells was assessed using a modification of a widely used in vitro sprouting assay (Nehls, V., and Drenckhahn, D. 1995 Microvasc Res 50, 311-322). Briefly, dextran beads microcarriers (Cytodex 3) with a dry weight of 50 mg were swollen in PBS and autoclaved. The microcarriers were washed in EGM-2MV medium and seeded with 3×10^6 HMVECs in a spinner flask. The microcarriers were stirred for 2 minutes out of 30 minutes for […] at 37° C. incubation. After 4 hours, the beads and cells mixture were continuously stirred and incubated for an additional 20 hours. The cell-coated beads were then seeded in fibrin gel in a 24-well-plate. The composition of the fibrin gel in each well was 0.682 mg fibrinogen (Sigma, T3879), 11.4 μg aprotinin (Sigma, A4529), 0.455 U thrombin (Sigma, T6884) in 393 μL of phosphate buffered saline (PBS) and 57 μL of EGM2-MV. Gels were incubated at 37° C. for 30 minutes and media of experimental conditions were placed on top of the gel. […] Media were changed every 24 hours and the cells were allowed to sprout from beads into surrounding gel over 4 days. […]

angiogenesis = conditions: from previous studies; cited from earlier work
[4] = test system: BMP4 reporter (C2C12 BRE Luc); assay: BMP4 reporter cell line luciferase activity; assay type: cell-based
Method: as §1, §2

[5] = test system: phospho-Smad1/5/8 in D1 (MSCs); assay: immunoblot for phospho-Smad1/5/8 in D1 MSCs; assay type: cell-based
Method: as §3

[6] = inhibitor wash-off / re-addition scheme, lysis at 24 hours

In the case of “TGF-β1: transforming growth factor-β1, morphogen used to drive dentin differentiation”, the “luciferase activity with varying TGF-β1 concentration” value [1] is reported as “linear dose dependence”, the “exposure time sufficient for maximal induction of luciferase activity” value [1, 6] is reported as 5 to 15 min and the “phospho-Smad2 activation (immunoblot)” value [2] is reported as “dose-dependent activation”. The phospho-Smad2/3 immunostaining ([2]; following stimulation) was “nuclear localization of activated Smads”.

In the case of VEGF, the “angiogenic sprouting (number of sprouts per bead)” value [3] is listed as “induced angiogenic sprouting” and the “minimum effective VEGF concentration in vivo to induce angiogenesis” value (angiogenesis) is listed as roughly 5 ng/mL.

B1: BMP4: bone morphogenetic protein 4, morphogen used to drive bone differentiation (protein, UniProt P12644 293-408, looked up)
Bone morphogenetic protein 4: SPKHHSQRARKKNKNCRRHSLYVDFSDVGWNDWIVAPPGYQAFYCHGDCPFPLADHLNSTNHAIVQTLVNSVNSSIPKACCVPTELSAISMLYLDEYDKVVLKNYQEMVVEGCGCR
For B1, the “luciferase activity with varying BMP4 concentration” value [4] was “linear dose dependence”, the “exposure time sufficient for maximal induction of luciferase activity” value [4, 6] was 5 to 15 min and the “phospho-Smad1/5/8 activation (immunoblot)” value [5] was “dose-dependent activation”.

— US9693954B2, “Co-delivery of stimulatory and inhibitory factors to create temporally stable and spatially restricted zones” (President and Fellows of Harvard College, priority 2010, dated 2017)
